Data from ChEMBL document CHEMBL1146141, “Synthesis of constrained ceramide analogs and their potent antileukemic activities” (Bioorg Med Chem Lett, 2006).
The source made the active and inactive calls. The calls are words filed in the database; no cut-off is given here.

Tested on: HL-60
Assay: Antileukemic activity against human leukemia HL60 cells at 20 uM
Type: functional, cell-based

Compound	Activity
CCCCCCCCCCCCC/C=C/[C@@H](O)[C@@H]1COC(=O)N1C(=O)CC	Active
CCCCCCCCCCCCC/C=C/[C@@H](O)[C@@H]1COC(=O)N1C(=O)CCCCCCCCCCCCCCC	inactive
CCCCCCCCCCCCC/C=C/[C@@H](O)[C@@H]1COC(=O)N1C(=O)c1ccccc1	Active
